ChEMBL document CHEMBL5038618, “Discovery of PT-65 as a highly potent and selective Proteolysis-targeting chimera degrader of GSK3 for treating Alzheimer's disease” (Eur J Med Chem, 2021)
Activity calls are given as the source filed them. The calls are words filed in the database; no cut-off is given here.

Columns and labels:
[1] = system: SH-SY5Y; assay: Induction of apoptosis in human SH-SY5Y cells assessed as live cells at 62.5 nM preincubated for 2 hrs followed by coincubation with Abeta42 and measured after 72 hrs by Annexin V-FITC/propidium iodide staining based flow cytometry (Rvb=94.8%); type: functional; conditions: time 74 hrs
[2] = system: Rattus norvegicus; assay: Antialzheimer activity against okadaic acid induced Sprague-Dawley rat assessed as reduction in escape latency time to hidden platform at 200 to 600 uM, iv measured upto 5 days by Morris water maze test; type: functional, organism-based; conditions: dose 200-600 µM, time day <=5
[3] = system: SH-SY5Y; assay: Induction of apoptosis in human SH-SY5Y cells assessed as live cells at 250 nM preincubated for 2 hrs followed by coincubation with Abeta42 and measured after 72 hrs by Annexin V-FITC/propidium iodide staining based flow cytometry (Rvb=94.8%); type: functional; conditions: time 74 hrs
[4] = target: T1, Protein cereblon/Glycogen synthase kinase-3 alpha (Homo sapiens, UniProt P49840+Q96SW2); assay: Protac activity at CRBN/GSK3alpha in human SH-SY5Y cells assessed as GSK3alpha degradation at 1 uM pretreated with MG-132 for 2 hrs followed by compound addition and measured after 24 hrs; type: cell-based
Target sequence in this assay (P49840 2-483 limits assumed): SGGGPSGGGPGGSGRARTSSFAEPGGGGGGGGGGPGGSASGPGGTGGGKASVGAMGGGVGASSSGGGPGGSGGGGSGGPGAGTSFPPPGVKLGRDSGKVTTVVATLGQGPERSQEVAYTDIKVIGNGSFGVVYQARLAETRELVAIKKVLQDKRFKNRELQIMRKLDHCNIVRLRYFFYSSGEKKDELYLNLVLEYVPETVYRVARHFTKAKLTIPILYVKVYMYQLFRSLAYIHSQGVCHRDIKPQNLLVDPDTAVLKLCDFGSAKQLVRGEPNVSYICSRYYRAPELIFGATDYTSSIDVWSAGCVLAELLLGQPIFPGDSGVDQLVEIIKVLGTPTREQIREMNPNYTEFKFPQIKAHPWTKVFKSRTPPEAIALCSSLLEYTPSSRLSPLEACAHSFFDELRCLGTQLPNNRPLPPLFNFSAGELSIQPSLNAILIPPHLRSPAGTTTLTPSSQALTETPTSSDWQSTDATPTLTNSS
Target sequence in this assay (Q96SW2 whole entry partner): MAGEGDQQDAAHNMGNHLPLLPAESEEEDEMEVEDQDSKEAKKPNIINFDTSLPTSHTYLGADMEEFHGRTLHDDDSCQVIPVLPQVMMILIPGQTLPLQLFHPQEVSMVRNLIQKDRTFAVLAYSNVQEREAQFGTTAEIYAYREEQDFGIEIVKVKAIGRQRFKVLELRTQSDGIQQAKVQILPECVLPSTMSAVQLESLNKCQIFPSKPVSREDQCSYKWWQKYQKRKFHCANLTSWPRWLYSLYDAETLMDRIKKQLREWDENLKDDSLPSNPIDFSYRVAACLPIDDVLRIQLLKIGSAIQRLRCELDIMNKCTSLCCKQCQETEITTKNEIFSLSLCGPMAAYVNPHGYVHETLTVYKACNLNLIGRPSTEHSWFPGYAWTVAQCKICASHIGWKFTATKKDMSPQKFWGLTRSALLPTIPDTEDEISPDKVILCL

[5] = system: SH-SY5Y; assay: Induction of apoptosis in human SH-SY5Y cells assessed as early apoptotic cells at 62.5 nM preincubated for 2 hrs followed by coincubation with Abeta42 and measured after 72 hrs by Annexin V-FITC/propidium iodide staining based flow cytometry (Rvb=1%); type: functional; conditions: time 74 hrs
[6] = system: SH-SY5Y; assay: Downregulation of GSK3alpha expression in human SH-SY5Y cells at 62.5 to 500 nM pretreated for 2 hrs followed by Abeta42 coincubation for 72 hrs by Westernblot analysis; type: functional, cell-based; conditions: dose 62.5-500 nM, time 74.0 hrs
[7] = system: SH-SY5Y; assay: Induction of GSK3beta degradation in human SH-SY5Y cells assessed as recovery of GSK3beta protein pretreated for 12 hrs followed by compound washout and measured upto 36 hrs by western blot assay; type: cell-based; conditions: time 48.0 hrs
[8] = system: SH-SY5Y; assay: Induction of apoptosis in human SH--SY5Y cells assessed as late apoptotic cells at 250 nM preincubated for 2 hrs followed by coincubation with Abeta42 and measured after 72 hrs by Annexin V-FITC/propidium iodide staining based flow cytometry (Rvb=3.5%); type: functional; conditions: time 74 hrs
[9] = target: T2, Protein cereblon/Glycogen synthase kinase-3 beta (Homo sapiens, UniProt P49841+Q96SW2); assay: Protac activity at CRBN/GSK3beta in human SH-SY5Y cells assessed as GSK3beta degradation at 1 uM pretreated with pomalidomide for 2 hrs followed by compound addition and measured after 24 hrs; type: cell-based
T2 sequence (P49841 whole entry, looked up): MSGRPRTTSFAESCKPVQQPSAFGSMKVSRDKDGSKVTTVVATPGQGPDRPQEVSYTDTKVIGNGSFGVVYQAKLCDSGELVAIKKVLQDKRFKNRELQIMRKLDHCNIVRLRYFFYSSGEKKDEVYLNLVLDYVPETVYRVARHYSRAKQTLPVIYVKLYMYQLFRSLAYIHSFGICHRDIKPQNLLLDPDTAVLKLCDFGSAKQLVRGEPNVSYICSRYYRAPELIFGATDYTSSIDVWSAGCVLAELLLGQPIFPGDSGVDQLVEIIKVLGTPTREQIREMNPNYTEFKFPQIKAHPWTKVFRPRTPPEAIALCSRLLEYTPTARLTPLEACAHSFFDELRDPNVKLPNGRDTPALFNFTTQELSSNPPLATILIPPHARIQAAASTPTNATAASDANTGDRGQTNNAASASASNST
T2 sequence (Q96SW2 whole entry, looked up): as the sequence (Q96SW2 whole entry partner) above

[10] = target: T1, Protein cereblon/Glycogen synthase kinase-3 alpha; assay: Protac activity at CRBN/GSK3alpha in human SH-SY5Y cells assessed as GSK3alpha degradation at 1 uM pretreated with pomalidomide for 2 hrs followed by compound addition and measured after 24 hrs; type: cell-based
Target sequence in this assay (P49840 2-483 limits assumed): as the sequence (P49840 2-483 limits assumed) above
Target sequence in this assay (Q96SW2 whole entry partner): as the sequence (Q96SW2 whole entry partner) above

[11] = system: SH-SY5Y; assay: Induction of apoptosis in human SH-SY5Y cells assessed as necrotic cells at 250 nM preincubated for 2 hrs followed by coincubation with Abeta42 and measured after 72 hrs by Annexin V-FITC/propidium iodide staining based flow cytometry (Rvb=0.7%); type: functional; conditions: time 74 hrs
[12] = target: Glycogen synthase kinase-3 alpha (Homo sapiens) (UniProt P49840); assay: Induction of GSK3alpha degradation in human SH-SY5Y cells assessed as recovery of GSK3alpha protein pretreated for 12 hrs followed by compound washout and measured upto 36 hrs by western blot assay; type: cell-based; conditions: time 48.0 hrs
Chain of Glycogen synthase kinase-3 alpha (Homo sapiens) (P49840 2-483 limits assumed): as the sequence (P49840 2-483 limits assumed) above

[13] = target: T3, Glycogen synthase kinase-3 beta (Homo sapiens, UniProt P49841); assay: Binding affinity to recombinant GSK3beta (unknown origin) assessed as dissociation […] constant upto 0.00975 uM by SPR analysis
Target sequence in this assay (P49841 whole entry): as the sequence (P49841 whole entry, looked up) above

[14] = target: T2, Protein cereblon/Glycogen synthase kinase-3 beta; assay: Protac activity at CRBN/GSK3beta in human SH-SY5Y cells assessed as GSK3beta degradation at 1 uM pretreated with MG-132 for 2 hrs followed by compound addition and measured after 24 hrs; type: cell-based
[15] = system: SH-SY5Y; assay: Induction of apoptosis in human SH-SY5Y cells assessed as necrotic cells at 125 nM preincubated for 2 hrs followed by coincubation with Abeta42 and measured after 72 hrs by Annexin V-FITC/propidium iodide staining based flow cytometry (Rvb=0.7%); type: functional; conditions: time 74 hrs
[16] = target: T1, Protein cereblon/Glycogen synthase kinase-3 alpha; assay: Protac activity at CRBN/GSK3alpha in human SH-SY5Y cells assessed as induction of GSK3alpha protein degradation measured after 24 hrs; type: cell-based
Target sequence in this assay (P49840 whole entry): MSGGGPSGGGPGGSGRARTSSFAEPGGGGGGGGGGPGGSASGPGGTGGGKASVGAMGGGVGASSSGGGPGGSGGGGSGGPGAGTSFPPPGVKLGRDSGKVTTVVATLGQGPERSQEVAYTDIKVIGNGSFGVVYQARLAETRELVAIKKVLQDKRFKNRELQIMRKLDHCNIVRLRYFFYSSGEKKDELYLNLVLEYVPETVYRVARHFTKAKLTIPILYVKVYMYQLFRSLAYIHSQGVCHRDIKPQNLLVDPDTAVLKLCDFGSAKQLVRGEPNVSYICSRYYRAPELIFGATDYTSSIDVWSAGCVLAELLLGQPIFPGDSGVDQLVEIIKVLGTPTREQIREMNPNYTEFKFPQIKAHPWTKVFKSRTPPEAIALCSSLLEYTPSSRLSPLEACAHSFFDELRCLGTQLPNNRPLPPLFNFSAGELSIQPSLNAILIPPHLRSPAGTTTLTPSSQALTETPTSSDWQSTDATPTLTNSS
Target sequence in this assay (Q96SW2 whole entry): as the sequence (Q96SW2 whole entry partner) above

[17] = system: SH-SY5Y; assay: Cytotoxicity against human SH-SY5Y cells assessed as cell viability upto 100 uM measured after 72 hrs by CCK8 assay; type: functional, cell-based; conditions: dose microM <=100, time 72.0 hrs
[18] = system: SH-SY5Y; assay: Effect on tau protein expression in human SH-SY5Y cells assessed as reduction on phosphorylated tau threonine205 residue level at 62.5 to 500 nM pretreated for 2 hrs followed by Abeta42 coincubation for 72 hrs by Westernblot analysis; type: functional, cell-based; conditions: dose 62.5-500 nM, time 74.0 hrs
[19] = target: T2, Protein cereblon/Glycogen synthase kinase-3 beta; assay: Protac activity at CRBN/GSK3beta in human SH-SY5Y cells assessed as induction of GSK3beta degradation at 0.1 uM measured after 24 hrs; type: cell-based
[20] = target: Glycogen synthase kinase-3 alpha (Homo sapiens) (UniProt P49840); assay: Induction of GSK3alpha degradation in human SH-SY5Y cells assessed as maximum degradation at 1 uM measured after 9 hrs by western blot assay; type: cell-based
[21] = system: Rattus norvegicus; assay: Antialzheimer activity against hippocampal tissue of okadaic acid induced Sprague-Dawley rat assessed as reduction on GSK3beta protein level at 200 to 600 uM, iv by western blot assay; type: functional, organism-based; conditions: Hippocampus, dose 200-600 µM
[22] = system: SH-SY5Y; assay: Effect on tau protein expression in human SH-SY5Y cells assessed as reduction on phosphorylated tau Ser404 residue level at 62.5 to 500 nM pretreated for 2 hrs followed by Abeta42 coincubation for 72 hrs by Westernblot analysis; type: functional, cell-based; conditions: dose 62.5-500 nM, time 74.0 hrs
[23] = target: T3, Glycogen synthase kinase-3 beta; conditions: dose microM <=0.00975
Target sequence in this assay (P49841 whole entry, looked up): as the sequence (P49841 whole entry, looked up) above
Description: Binding affinity to recombinant GSK3beta (unknown origin) assessed as association rate constant upto 0.00975 uM by SPR analysis

[24] = target: T1, Protein cereblon/Glycogen synthase kinase-3 alpha; assay: Protac activity at CRBN/GSK3alpha in human SH-SY5Y cells assessed as induction of GSK3alpha protein degradation at 1 uM measured after 24 hrs; type: cell-based
Target sequence in this assay (P49840 2-483 limits assumed): as the sequence (P49840 2-483 limits assumed) above
Target sequence in this assay (Q96SW2 whole entry partner): as the sequence (Q96SW2 whole entry partner) above

[25] = system: Rattus norvegicus; assay: Improvement in learning and spatial memory in okadaic acid induced Sprague-Dawley rat assessed as increase in time spent in target quadrant at 200 to 600 uM, iv measured after 6 days by Morris water maze test; type: functional, organism-based; conditions: dose 200-600 µM, time 6.0 day
[26] = system: SH-SY5Y; assay: Effect on tau protein expression in human SH-SY5Y cells assessed as reduction on phosphorylated tau Ser396 residue level at 62.5 to 500 nM pretreated for 2 hrs followed by Abeta42 coincubation for 72 hrs by Westernblot analysis; type: functional, cell-based; conditions: dose 62.5-500 nM, time 74.0 hrs
[27] = system: SH-SY5Y; assay: Induction of apoptosis in human SH-SY5Y cells assessed as late apoptotic cells at 62.5 nM preincubated for 2 hrs followed by coincubation with Abeta42 and measured after 72 hrs by Annexin V-FITC/propidium iodide staining based flow cytometry (Rvb=3.5%); type: functional; conditions: time 74 hrs
[28] = system: SH-SY5Y; assay: Induction of apoptosis in human SH-SY5Y cells assessed as early apoptotic cells at 250 nM preincubated for 2 hrs followed by coincubation with Abeta42 and measured after 72 hrs by Annexin V-FITC/propidium iodide staining based flow cytometry (Rvb=1%); type: functional; conditions: time 74 hrs
[29] = system: SH-SY5Y; assay: Induction of GSK3beta degradation in human SH-SY5Y cells assessed as maximum degradation at 1 uM measured after 9 hrs by western blot assay; type: cell-based
[30] = system: SH-SY5Y; assay: Induction of apoptosis in human SH-SY5Y cells assessed as early apoptotic cells at 125 nM preincubated for 2 hrs followed by coincubation with Abeta42 and measured after 72 hrs by Annexin V-FITC/propidium iodide staining based flow cytometry (Rvb=1%); type: functional; conditions: time 74 hrs

Compound: Nc1ncc(-c2ccc(S(=O)(=O)N3CCN(CCCCc4cn(CCOCCOCCOCCOCCOCCNc5cccc6c5C(=O)N(C5CCC(=O)NC5=O)C6=O)nn4)CC3)cc2)nc1C(=O)Nc1cccnc1 (stereo not given)
- Activity [1]: 79%
- Activity [2]: inactive
- Activity [3]: 89.5%
- Activity [4]: inactive
- Activity [5]: 1%
- Activity [6]: Dose-Dependent Effect
- Activity [7]: Active
- Activity [8]: 6.5%
- Activity [9]: inactive
- Activity [10]: inactive
- Activity [11]: 2.8%
- Activity [12]: Active
- Kd [13]: 0.0253 s⁻¹
- Activity [14]: inactive
- Activity [15]: 3.3%
- DC50 [16]: 28.3 nM
- Activity [17]: inactive
- Activity [18]: Dose-Dependent Effect
- Activity [19]: 67.1%
- Activity [20]: Active
- Activity [21]: Active
- Activity [22]: Dose-Dependent Effect
- Ka [23]: 2.04 10^6/Ms
- Activity [24]: 94.3%
- Activity [25]: Active
- Activity [26]: Dose-Dependent Effect
- Activity [27]: 14.3%
- Activity [28]: 1.2%
- Activity [29]: Active
- Activity [30]: 1.2%
